{"source": "ChEMBL document CHEMBL1127653", "about": "“Synthesis and anticholinergic activity of the four stereoisomers of 4-(dimethylamino)-2-phenyl-2-(2-pyridyl)pentanamide” (J Med Chem, 1994)", "organism": "Cavia porcellus", "assay": "Inhibitory effect on acetylcholine-Induced contraction of Guinea pig iIeum", "format": "functional", "data": [{"smiles": "CN(C)CCC(C(N)=O)(c1ccccc1)c1ccccn1", "note": "(configuration not stated)", "values": [{"measurement": "IC50", "setting": "Cavia porcellus", "value": 8.1, "unit": "µM"}]}, {"smiles": "CC(CC(C(N)=O)(c1ccccc1)c1ccccn1)N(C)C", "note": "(racemic; form 1) [VAMICAMIDE]", "values": [{"measurement": "IC50", "value": 1.5, "unit": "µM"}]}, {"smiles": "CC(CC(C(N)=O)(c1ccccc1)c1ccccn1)N(C)C", "note": "(racemic; form 2) [VAMICAMIDE]", "values": [{"measurement": "IC50", "value": 0.57, "unit": "µM"}]}, {"smiles": "C[C@H](C[C@@](C(N)=O)(c1ccccc1)c1ccccn1)N(C)C", "note": "(stereo in doubt; 10 (2R,4R))", "values": [{"measurement": "IC50", "value": 0.4, "unit": "µM"}]}, {"smiles": "C[C@H](C[C@@](C(N)=O)(c1ccccc1)c1ccccn1)N(C)C", "note": "(stereo in doubt; 11 (2S,4S))", "values": [{"measurement": "IC50", "value": 31, "unit": "µM"}]}, {"smiles": "C[C@H](C[C@@](C(N)=O)(c1ccccc1)c1ccccn1)N(C)C", "note": "(stereo in doubt; 12 (2R,4S))", "values": [{"measurement": "IC50", "value": 170, "unit": "µM"}]}, {"smiles": "C[C@H](C[C@@](C(N)=O)(c1ccccc1)c1ccccn1)N(C)C", "note": "(stereo in doubt; 13 (2S,4R))", "values": [{"measurement": "IC50", "value": 0.13, "unit": "µM"}]}]}
